From PubChem BioAssay (NCI)
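Assay format: 96-well plates, 48-hour exposure. GI50: concentration for 50% inhibition of growth. TGI denotes the concentration required for complete inhibition of growth.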

Legend:
Assay in all cases: growth of human tumour cells (NCI), 48 h
[1] = tested on: NCI-H522 lung
[2] = tested on: IGROV1 ovarian
[3] = tested on: PC-3 prostate
[4] = tested on: HS 578T breast
[5] = tested on: SN12C renal
[6] = tested on: OVCAR-4 ovarian
[7] = tested on: OVCAR-3 ovarian
[8] = tested on: M14 melanoma
[9] = tested on: SK-MEL-28 melanoma
[10] = tested on: SF-268 CNS
[11] = tested on: SF-295 CNS
[12] = tested on: UACC-257 melanoma
[13] = tested on: HCC-2998 colon
[14] = tested on: NCI-H226 lung
[15] = tested on: CCRF-CEM leukemia
[16] = tested on: KM12 colon
[17] = tested on: MDA-MB-435
[18] = tested on: ACHN renal
[19] = tested on: SNB-75 CNS
[20] = tested on: HOP-92 NSCLC
[21] = tested on: UACC-62 melanoma
[22] = tested on: SK-MEL-5 melanoma
[23] = tested on: HL-60(TB) leukemia
[24] = tested on: K-562 leukemia
[25] = tested on: RXF 393 renal
[26] = tested on: SF-539 CNS
[27] = tested on: MOLT-4 leukemia
[28] = tested on: DU-145 prostate
[29] = tested on: MCF7 breast
[30] = tested on: UO-31 renal
[31] = tested on: OVCAR-8 ovarian
[32] = tested on: MDA-MB-231 breast
[33] = tested on: SK-MEL-2 melanoma
[34] = tested on: HT29 colon
[35] = tested on: TK-10 renal
[36] = tested on: NCI/ADR-RES ovarian
[37] = tested on: LOX IMVI melanoma
[38] = tested on: SK-OV-3 ovarian
[39] = tested on: CAKI-1 renal
[40] = tested on: OVCAR-5 ovarian
[41] = tested on: SW-620 colon
[42] = tested on: NCI-H460 lung
[43] = tested on: HOP-62 NSCLC
[44] = tested on: BT-549 breast
[45] = tested on: SNB-19 CNS
[46] = tested on: U251 CNS
[47] = tested on: A549 NSCLC
[48] = tested on: RPMI-8226 leukemia
[49] = tested on: HCT-116 colon
[50] = tested on: EKVX NSCLC
[51] = tested on: NCI-H23 lung
[52] = tested on: COLO 205 colon
[53] = tested on: HCT-15 colon
[54] = tested on: T-47D breast
[55] = tested on: MALME-3M melanoma

## Nc1ncc(-c2ccc3ncnc(Nc4ccc(F)c(Cl)c4)c3c2)cn1
[1]
  GI50: 1.7 µM
  TGI: 8.92 µM
[2]
  GI50: 0.258 µM
  TGI: 2.43 µM
[3]
  GI50: 2.48 µM
  TGI: 53.6 µM
[4]
  GI50: 1.19 µM
  TGI: 3.52 µM
[5]
  GI50: 1.58 µM
  TGI: 4.1 µM
[6]
  GI50: 1.32 µM
  TGI: 2.97 µM
[7]
  GI50: 1.2 µM
  TGI: 2.57 µM
[8]
  GI50: 3.74 µM
  TGI: 17.1 µM
[9]
  GI50: 3.08 µM
  TGI: 17.6 µM
[10]
  GI50: 2.48 µM
  TGI: 68.5 µM
[11]
  GI50: 2.11 µM
  TGI: 11 µM
[12]
  GI50: 13.4 µM
  TGI: 31.7 µM
[13]
  GI50: 22.2 µM
  TGI: > 100 µM
[14]
  GI50: 2.07 µM
  TGI: 4.67 µM
[15]
  GI50: 2.86 µM
  TGI: > 100 µM
[16]
  GI50: 5.01 µM
  TGI: > 100 µM
[17]
  GI50: 2.31 µM
  TGI: 13.4 µM
[18]
  GI50: 0.387 µM
  TGI: 2.05 µM
[19]
  GI50: 0.544 µM
  TGI: 2.43 µM
[20]
  GI50: 1.03 µM
  TGI: 3.52 µM
[21]
  GI50: 4.99 µM
  TGI: 39.9 µM
[22]
  GI50: 2.84 µM
  TGI: 9.69 µM
[23]
  GI50: 10.6 µM
  TGI: 29.7 µM
[24]
  GI50: 3.25 µM
  TGI: > 100 µM
[25]
  GI50: 0.932 µM
  TGI: 3.5 µM
[26]
  GI50: 1.52 µM
  TGI: 2.93 µM
[27]
  GI50: 2.24 µM
  TGI: 9.33 µM
[28]
  GI50: 0.759 µM
  TGI: > 100 µM
[29]
  GI50: 1.49 µM
  TGI: 20.5 µM
[30]
  GI50: 0.5 µM
  TGI: 3.02 µM
[31]
  GI50: 2.96 µM
  TGI: 17.5 µM
[32]
  GI50: 1.44 µM
  TGI: 3.8 µM
[33]
  GI50: 18.2 µM
  TGI: 39.9 µM
[34]
  GI50: 2.31 µM
  TGI: 19.3 µM
[35]
  GI50: 0.132 µM
  TGI: 1.42 µM
[36]
  GI50: 3.8 µM
  TGI: 46.2 µM
[37]
  GI50: 2.35 µM
  TGI: 10.7 µM
[38]
  GI50: 0.634 µM
  TGI: 3.96 µM
[39]
  GI50: 0.367 µM
  TGI: 4.02 µM
[40]
  GI50: 1.02 µM
  TGI: 3.69 µM
[41]
  GI50: 3.02 µM
  TGI: 11.7 µM
[42]
  GI50: 1.44 µM
  TGI: 2.96 µM
[43]
  GI50: 1.7 µM
  TGI: 4.45 µM
[44]
  GI50: 1.88 µM
  TGI: 8.27 µM
[45]
  GI50: 3.53 µM
  TGI: 23.5 µM
[46]
  GI50: 1.72 µM
  TGI: 4.24 µM
[47]
  GI50: 1.95 µM
  TGI: 8.25 µM
[48]
  GI50: 2.15 µM
  TGI: 7.51 µM
[49]
  GI50: 1.89 µM
  TGI: 3.73 µM
[50]
  GI50: 0.252 µM
  TGI: 38 µM
[51]
  GI50: 2.81 µM
  TGI: 39.3 µM
[52]
  GI50: 2.5 µM
  TGI: 11.2 µM
[53]
  GI50: 2.54 µM
  TGI: > 100 µM
[54]
  GI50: 0.703 µM
  TGI: 3.16 µM
[55]
  GI50: 1.29 µM
  TGI: 4.47 µM
